According to article PMC9909315, “SY-707, an ALK/FAK/IGF1R inhibitor, suppresses growth and metastasis of breast cancer cells” (Acta Biochimica et Biophysica Sinica, 2022):

Columns and labels:
FAK = FAK (Homo sapiens, UniProt Q05397); experiment: HTRF kinase enzyme assay; type: biochemical; conditions: ATP at Km
Method: Homogeneous time-resolved fluorescence (HTRF) assay was performed to analyze kinase enzyme activity and compound potency using HTRF ® KinEASE ^TM-TK kit (Cisbio Bioassays, Shanghai, China). […] The resulted solutions were briefly mixed, centrifuged and incubated for 5 min. Finally, 2.5 μL of 4× ATP/TK peptide (ATP at K m for each kinase) solution was added to the reaction system to initiate the reaction. The enzymatic reaction was carried out for 60-120 min at 23°C, then terminated by addition of 5 μL of detection solution containing TK antibody-cryptate and 5 μL of Streptravidin-XL-665. The mixture was incubated for additional 1 h at 23°C. The fluorescent signals were measured with an EnVision multilabel plate reader (PerkinElmer). IC 50 values of the compounds were calculated using the GraFit software (Version 6.0) and presented as the mean of three independent experiments performed in duplicate.

solid cancer cells = experiment: Cell proliferation assay, summary over the cell line series; type: cell-based; conditions: 72 h, read-out: IC50 values (summary over the solid cancer cell lines)
Method: MCF-7, T47D, MDA-MB-231, MIA Paca-2, PANC-1, SW620, HT-29, U87MG, and A549 cell lines were purchased from the Cell Bank of Chinese Academy of Science (Shanghai, China). Cells were cultured in DMEM or RPMI-1640 (Gibco, BRL, USA) supplemented with 10% FBS (HyClone, Logan, USA) and 50 IU penicillin/streptomycin in a humidified atmosphere with 5% CO 2 at 37°C. The effects of SY-707 on cell proliferation were measured using CellTiter-Glo ® or CellTiter-Blue ® Cell Viability Assay kits (Promega, Beijing, China). In brief, cells were seeded in 96-well plates at low destiny with 195 μL of medium per well. The stock solutions of compounds were 3-fold serially diluted with DMSO from 10 mM to 0.3 nM, and 4 μL of solution at each concentration was mixed with 96 μL of serum free medium, then 5 μL of the resulted solution was added to each well. […] The luminescence signals were measured using EnVision ® multilabel plate reader (PerkinElmer), and the fluorescent signals were examined using FlexStation 3 (Molecular Devices, Sunnyvale, USA), and the IC 50 values were calculated using Prism ® software (Version 5.0) and presented as the average of three independent experiments performed in duplicate.

MCF-7 cells [1] = experiment: Cell cycle analysis (PI, flow cytometry); type: cell-based; conditions: MCF-7, 24 h, dose-dependent; decrease of S phase
Method: MCF-7 cells were treated with 0.1% DMSO (control) or with SY-707 solution at indicated concentrations for 24 h at 37°C, then the cells were harvested by centrifugation at 350 g and washed twice with PBS. Cell apoptosis was determined using the PE Annexin V Apoptosis Detection kit (BD Biosciences, San Jose, USA) following the manufacture’s guides. Breifly, cells were resuspended with 100 μL of binding buffer containing Annexin V and 7-AAD. After 15 min of incubation at room temperature in the dark, 400 μL of binding buffer was added to the mixture and the cells were analyzed with a Guava flow cytometer (Millipore). Cell cycle arrest was evaluated by incorporation of propidium (PI; Sigma-Aldrich, St Louis, USA) into the permeablized cells. After being treated with DMSO or compounds for 24 h, cells were harvested, washed twice with cold PBS, fixed with ice-cold 70% ethanol, followed by a secondary staining step with staining buffer (0.25 mg/mL RNase, 0.025 mg/mL PI, in PBS) for 1 h at 37°C. Compound regulation of cell-cycle was analyzed using the Guava flow cytometer. Data were analyzed with FlowJo software.

MCF-7 cells [2] = experiment: Would healing (migration) assay; type: cell-based; conditions: MCF-7, 24 h, vs control
Method: (§1) Totally, 5×10 ^5 cells were plated into each well of 6-well plates, and cultured to 70%–80% confluence, then the cell monolayer was gently and slowly scratched with a new 1-mL pipette tip across the center of the well. After scratching, the wells were gently washed with PBS twice to remove the detached cells, and replenished with fresh medium containing indicated concentration of compounds. The treated cells were allowed to grow for additional 24 h, and images were capturedunder a microscope. The migration distance were calculated and analyzed to evaluate the effects of compounds.

T47D cells = experiment: Would healing (migration) assay; type: cell-based; conditions: 24 h, vs control
Method: as §1

phosphorylation of IGF1R = experiment: Western blot of IGF1R phosphorylation in T47D cells after IGF1; type: cell-based; conditions: 1 h treatment, then 100 ng/mL IGF1 for 10 min, dose-dependent
Method: Equal amounts of cell lysates were loaded onto 10% SDS-PAGE gel and separated by electrophoresis. Separated proteins were then electro-transferred onto polyvinylidene fluoride (PVDF) membranes (Millipore, Bedford, USA). After being blocked with Tris-buffered saline containing 0.1% Tween-20 (TBST) and 5% bovine serum albumin (BSA), the membranes were incubated with primary antibodies at room temperature for 2 hours or at 4°C, then washed with TBST, followed by treatment with horseradish peroxidase (HRP)-conjugated goat anti-rabbit IgG secondary antibody at room temperature for another 1 h. The targeted protein bands were visualized using an enhanced chemiluminescence (ECL) plus system (Thermo Fisher Scientific). […]
Figure4 Inhibitory effects of SY-707 on the phosphorylation of FAK(A,B) Concentration-dependent inhibition of SY-707 on phosphorylation of FAK in T47D (A) and MCF-7 (B) cells. […] Cell lysates were analyzed by western blot analysis using specific antibodies against p-FAK, p-Pyk2, p-AKT and p-ERK respectively. […] Cell lysates were analyzed by western blot analysis using specific antibodies against p-IGF1R, p-STAT3, p-AKT and p-ERK respectively.

[3] = tested on: phosphorylation of FAK at Tyr397 in T47D tumor tissue; experiment: Pharmacokinetics/pharmacodynamics study in T47D xenograft model; type: in vivo, nude mice
Method: Figure5 Anti-tumor activities of SY-707 in breast cancer xenograftsXenograft tumors were established by inoculating T47D (A, B, C) cells or 4T1 (D) cells into the nude mice. Oral administration of SY-707 alone or combined with paclitaxel was initiated when tumors reached an average of approximately 150–300 mm3 in volume and continued through the experiment. Tumor volume was measured on the indicated days with the mean tumor volume±SD indicated for each group (10 mice/group). Each treatment group was compared to vehicle group with t-test. *P<0.05, **P<0.01. (B) The tumor tissues were harvested at 2 h after the last dosage of SY-707, compound levels in tumor tissues or plasma and the phosphorylation levels of FAK were analyzed.
To explore the relationship between the in vivo anti-tumor growth activities and the inhibition on FAK signaling, pharmacokinetics/pharmacodynamics studies were performed in T47D xenograft model.

Sequence of FAK (Q05397 whole entry): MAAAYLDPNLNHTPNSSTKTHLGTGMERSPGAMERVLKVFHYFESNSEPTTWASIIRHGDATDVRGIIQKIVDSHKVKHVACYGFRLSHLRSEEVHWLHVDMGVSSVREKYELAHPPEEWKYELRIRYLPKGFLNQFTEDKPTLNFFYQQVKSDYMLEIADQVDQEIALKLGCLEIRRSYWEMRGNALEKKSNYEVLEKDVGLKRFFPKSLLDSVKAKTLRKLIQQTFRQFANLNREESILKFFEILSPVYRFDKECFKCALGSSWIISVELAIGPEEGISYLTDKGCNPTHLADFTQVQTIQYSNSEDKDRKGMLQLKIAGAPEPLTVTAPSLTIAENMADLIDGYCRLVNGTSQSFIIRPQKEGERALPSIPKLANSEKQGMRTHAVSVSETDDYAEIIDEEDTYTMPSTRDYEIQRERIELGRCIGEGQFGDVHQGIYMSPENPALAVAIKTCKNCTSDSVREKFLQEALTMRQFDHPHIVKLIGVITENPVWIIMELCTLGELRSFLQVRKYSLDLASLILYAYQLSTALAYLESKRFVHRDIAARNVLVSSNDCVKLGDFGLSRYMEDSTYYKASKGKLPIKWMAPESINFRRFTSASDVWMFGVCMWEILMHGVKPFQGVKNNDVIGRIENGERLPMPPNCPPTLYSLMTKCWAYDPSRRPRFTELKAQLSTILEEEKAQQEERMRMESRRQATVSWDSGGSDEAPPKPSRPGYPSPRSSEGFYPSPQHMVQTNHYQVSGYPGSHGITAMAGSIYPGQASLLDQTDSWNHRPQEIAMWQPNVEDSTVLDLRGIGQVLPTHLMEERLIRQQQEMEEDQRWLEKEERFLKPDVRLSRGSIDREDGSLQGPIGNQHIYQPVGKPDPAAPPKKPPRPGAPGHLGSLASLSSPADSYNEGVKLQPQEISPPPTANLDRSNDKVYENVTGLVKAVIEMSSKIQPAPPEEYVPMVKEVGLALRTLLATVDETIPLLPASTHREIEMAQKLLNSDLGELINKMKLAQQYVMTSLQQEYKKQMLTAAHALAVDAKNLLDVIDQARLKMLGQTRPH

For COc1cc(N2CCC(N3CCN(C)CC3)CC2)ccc1Nc1nc2c(c(Nc3ccccc3S(=O)(=O)NC(C)C)n1)CCN2 [SY-707, N-isopropyl-2-((2-((2-methoxy-4-(4-(4-methylpiperazin-1-yl)piperidin-1-yl)phenyl)amino)-6,7-dihydro-5H-pyrrolo[2,3-d]pyrimidin-4-yl)amino)benzenesulfonamide], the IC50 (FAK) was 1.6 ± 0.5 nM, the IC50 (solid cancer cells) was 500 to 10000 nM and the cell cycle arrest (MCF-7 cells [1]) was “pronounced G2/M phase arrest”. The migration distance (MCF-7 cells [2]) was “significantly decreased”, the migration distance (T47D cells) was “significantly decreased” and the “phosphorylation of IGF1R” value (phosphorylation of IGF1R) was “block the phosphorylation”. The “concentration in tumor samples compared to plasma” value ([3]; 2 h after last dosage) was “higher concentrations of SY-707 were also detected in tumor samples” and the “phosphorylation level of FAK at Tyr397 in tumor” value ([3]; tumor harvested 2 h after last dosage, vs control group) was “significantly decreased”.
